This is an account of results in patent publication US20220144853A1, “IMIDAZOLINE DERIVATIVES AS CXCR4 MODULATORS” (Université de Paris, priority 2019, published 2022).

Structures can show the parent of a compound that is named as a salt.

For the test, the system named is IFN production by activated PBMCs. Put plainly: IFN production by R848-activated PBMCs from healthy donors, twINNE reporter cell line. The format is cell-based, human. The note with it: Homo sapiens, PBMC, means of two results over 2 healthy donors, R848 5 μg/mL, IT1t: mean over all experiments, read-out: IC50 of anti-inflammatory activity (IFN production). Here is the method: 2) The blood from healthy donors was also obtained from “Etablissement Français du Sang” (convention #19/EFS/029), Paris, France.
In vitro experiments were performed using human peripheral blood mononuclear cells (PBMCs) isolated by density centrifugation from peripheral blood leukocyte separation medium, lymphoprep (Stemcell Technologies).
PBMCs were cultured in RPMI 1640 (Sigma-Aldrich, MO, USA) containing 10% heat-inactivated fetal bovine serum (Sigma-Aldrich, MO, USA) at 37° C./5% CO2.
2) The PBMCs used herein were prepared as described in part A “immune cells preparation”, section 2) above. PBMCs were seeded at 4.10^6/mL. […] Cells were then stimulated with the TLR7/8 agonist resiquimod—R848 (Sigma-Aldrich, MO, USA) at 5 μg/mL.
2) To quantify the secretion of functional IFN, a biological assay based on a stable cell line where luciferase reporter gene is controlled by five Interferon-Stimulated Response Elements (twINNE cell line) was used. It is important to note that the twINNE cell line is the same as the above mentioned STING-37 cell line but with constitutively expressed nanoluciferase. First, supernatants of R848-stimulated PBMCs (see part B, section 2) above) were harvested after 24 h of stimulation and frozen at −20° C. for storage. Then, supernatants were dispensed in culture wells of a 96-well plate containing 35.103 twINNE cells per well in Dulbecco's Modified Eagle's Medium supplemented with 10% Foetal Bovine Serum, 100 U/mL Penicillin and 100 μg/mL Streptomycin (1% Pen-Strep) and 1 mM glutamine (Sigma-Aldrich, MO, USA) at 37° C./5% […]. After 24 h of culture, luciferase activity was determined by adding 60 μL of Bright-Go reagents (Promega, Wisconsin, USA) to culture wells and measuring bioluminescence with EnSpire Multimode Plate Reader (PerkinElmer, Massachusetts, USA). When stated, for IC50 calculation, dose-response curves fitted using the nonlin fit (variable slope) analysis in GraphPad Prism software (GraphPad Software, California, USA).
The IC50 is the concentration that gives 50% inhibition. For `C1=C(CSC2=NCCCN2)N2CCCN=C2S1` [Example 29, 3-(((1,4,5,6-tetrahydropyrimidin-2-yl)thio)methyl)-6,7-dihydro-5H-thiazolo[3,2-a]pyrimidine dihydrochloride], the IC50 is at least 31 µM.
For `CCCCC1CN=C(SCC2=CSC3=NCCN23)N1` (stereo not shown) [Example 30, 3-(((5-butyl-4,5-dihydro-1H-imidazol-2-yl)thio)methyl)-5,6-dihydroimidazo[2,1-b]thiazole dihydrochloride], the IC50 is at most 10 µM.
The value for `CC1(C)CN=C(SCCCc2cccnc2)N1` [Example 31, 3-(3-((5,5-dimethyl-4,5-dihydro-1H-imidazol-2-yl)thio)propyl)pyridine dihydrochloride] was at least 31 µM; that for `CC1(C)CN=C(SCc2cccnc2)N1` [Example 32, 3-(((5,5-dimethyl-4,5-dihydro-1H-imidazol-2-yl)thio)methyl)pyridine dihydrochloride] was at least 31 µM.
As for `CC1(C)CN=C(SCC2=CSC3=NC4(CC4)CN23)N1` [Example 33, dihydrochloride], the IC50 was at least 31 µM.
The value for `CC1(C)CN=C2SC=C(CSC3=NCC(C)(C)N3)N2C1` [Example 34, 3-(((5,5-dimethyl-4,5-dihydro-1H-imidazol-2-yl)thio)methyl)-6,6-dimethyl-6,7-dihydro-5H-thiazolo[3,2-a]pyrimidine dihydrochloride] was at least 31 µM; that for `C1=C(CSC2=NCCCN2)N2CCN=C2S1` [Example 35, 3-(((1,4,5,6-tetrahydropyrimidin-2-yl)thio)methyl)-5,6-dihydroimidazo[2,1-b]thiazole dihydrochloride] was at least 31 µM; that for `C1=C(CSC2=NCCCN2)N2CCCCN=C2S1` [Example 37, 3-(((1,4,5,6-tetrahydropyrimidin-2-yl)thio)methyl)-5,6,7,8-tetrahydrothiazolo[3,2-a][1,3]diazepine dihydrochloride] was at least 31 µM.
On to `CC1(C)CN=C(SCCCn2ccnc2)N1` [Example 38, 1-(3-((5,5-dimethyl-4,5-dihydro-1H-imidazol-2-yl)thio)propyl)-1H-imidazole dihydrochloride], for which the IC50 is at least 31 µM.
For `CC1(C)CN2C(CSC3=NCC4(CCCCC4)N3)=CSC2=N1` [Example 39, 3-(((1,3-diazaspiro[4.5]dec-2-en-2-yl)thio)methyl)-6,6-dimethyl-5,6-dihydroimidazo[2,1-b]thiazole dihydrochloride], the IC50 lay within 10 to 31 µM.
Turning to `CC1(C)CN2C(CSC3=NCC4CCCCC4N3)=CSC2=N1` (stereo not shown) [Example 40, 6,6-dimethyl-3-(((1,4,4a,5,6,7,8,8a-octahydroquinazolin-2-yl)thio)methyl)-5,6-dihydroimidazo[2,1-b]thiazole dihydrochloride], the IC50 is at least 31 µM.
The value for `CC1(C)CN=C(SCCc2cccc3ncccc23)N1` [Example 41, 5-(2-((5,5-dimethyl-4,5-dihydro-1H-imidazol-2-yl)thio)ethyl)quinoline dihydrochloride] was at least 31 µM; that for `CC1(C)CN=C(SCC2=CSC3=NC4(CCCCC4)CN23)N1` [Example 42, 3′-(((5,5-dimethyl-4,5-dihydro-1H-imidazol-2-yl)thio)methyl)-5′H-spiro[cyclohexane-1,6′-imidazo[2,1-b]thiazole] dihydrochloride] was 10 to 31 µM; that for `CC1(C)CN=C(SCC2=CSC3=NC4CCCCC4CN23)N1` (stereo not shown) [Example 43, 3-(((5,5-dimethyl-4,5-dihydro-1H-imidazol-2-yl)thio)methyl)-5a,6,7,8,9,9a-hexahydro-5H-thiazolo[2,3-b]quinazoline dihydrochloride] was 10 to 31 µM.
The value for `C1=C(CSC2=N[C@@H]3CCCC[C@H]3N2)N2CCN=C2S1` [Example 44, 3-((((3aR,7aR)-3a,4,5,6,7,7a-hexahydro-1H-benzo[d]imidazol-2-yl)thio)methyl)-5,6-dihydroimidazo[2,1-b]thiazole dihydrochloride] was at most 10 µM.
The value for `C1=C(CSC2=N[C@@H]3CCCC[C@H]3N2)N2CCCN=C2S1` [Example 45, 3-((((3aR,7aR)-3a,4,5,6,7,7a-hexahydro-1H-benzo[d]imidazol-2-yl)thio)methyl)-6,7-dihydro-5H-thiazolo[3,2-a]pyrimidine dihydrochloride] was at least 31 µM; that for `C1=C(CSC2=N[C@@H]3CCCC[C@H]3N2)N2CCCCN=C2S1` [Example 46, 3-((((3aR,7aR)-3a,4,5,6,7,7a-hexahydro-1H-benzo[d]imidazol-2-yl)thio)methyl)-5,6,7,8-tetrahydrothiazolo[3,2-a][1,3]diazepine dihydrochloride] was at least 31 µM; that for `CC1(C)CN=C(SCCn2ccnc2)N1` [Example 47, 1-(2-((5,5-dimethyl-4,5-dihydro-1H-imidazol-2-yl)thio)ethyl)-1H-imidazole dihydrochloride] was at least 31 µM.
In the case of `C1=C(CSC2=NCC(Cc3ccccc3)N2)N2CCCN=C2S1` (stereo not shown) [Example 48, 3-(((5-benzyl-4,5-dihydro-1H-imidazol-2-yl)thio)methyl)-6,7-dihydro-5H-thiazolo[3,2-a]pyrimidine dihydrochloride], the IC50 was at most 10 µM.
The value for `CC(C)C1CN=C(SCC2=CSC3=NC(C)(C)CN23)N1` (stereo not shown) [Example 49, 3-(((5-isopropyl-4,5-dihydro-1H-imidazol-2-yl)thio)methyl)-6,6-dimethyl-5,6-dihydroimidazo[2,1-b]thiazole dihydrochloride] was 10 to 31 µM; that for `CC1(C)CN=C(SCC2=CSC3=NC(c4ccccc4)CN23)N1` (stereo not shown) [Example 50, 3-(((5,5-dimethyl-4,5-dihydro-1H-imidazol-2-yl)thio)methyl)-6-phenyl-5,6-dihydroimidazo[2,1-b]thiazole dihydrochloride] was 10 to 31 µM; that for `CCCCC1CN=C(SCC2=CSC3=NC(Cc4ccccc4)CN23)N1` (stereo not shown) [Example 51, 6-benzyl-3-(((5-butyl-4,5-dihydro-1H-imidazol-2-yl)thio)methyl)-5,6-dihydroinidazo[2,1-b]thiazole dihydrochloride] was at most 10 µM.
The value for `CC(C)C1CN2C(CSC3=NCC(C)(C)N3)=CSC2=N1` (stereo not shown) [Example 52, 3-(((5,5-dimethyl-4,5-dihydro-1H-imidazol-2-yl)thio)methyl)-6-isopropyl-5,6-dihydroimidazo[2,1-b]thiazole dihydrochloride] was 10 to 31 µM; that for `CC1(C)CN2C(CSC3=NCC(c4ccccc4)N3)=CSC2=N1` (stereo not shown) [Example 53, 6,6-dimethyl-3-(((4-phenyl-4,5-dihydro-1H-imidazol-2-yl)thio)methyl)-5,6-dihydroimidazo[2,1-b]thiazole dihydrochloride] was at most 10 µM; that for `CN1CCCN=C1SCC1=CSC2=NC(C)(C)CN12` [Example 57, 6,6-dimethyl-3-(((1-methyl-1,4,5,6-tetrahydropyrimidin-2-yl)thio)methyl)-5,6-dihydroimidazo[2,1-b]thiazole dihydrochloride] was at least 31 µM.
For `CC(C)[C@@H]1N=C(SCC2=CSC3=NC(C)(C)CN23)N[C@H]1C(C)C` [Example 58, 3-((((4S,5S)-4,5-diisopropyl-4,5-dihydro-1H-imidazol-2-yl)thio)methyl)-6,6-dimethyl-5,6-dihydroimidazo[2,1-b]thiazole dihydrochloride], the IC50 is at least 31 µM.
For the molecule `C1=C(CSC2=NCC(Cc3ccccc3)N2)N2CC(Cc3ccccc3)N=C2S1` (stereo not shown) [Example 60, 6-benzyl-3-(((5-benzyl-4,5-dihydro-1H-imidazol-2-yl)thio)methyl)-5,6-dihydroimidazo[2,1-b]thiazole dihydrochloride], the IC50 was at most 10 µM.
On to `C1=C(CSC2=N[C@@H]3CCCC[C@H]3N2)N2CC(Cc3ccccc3)N=C2S1` (stereo partly drawn) [Example 61, 6-benzyl-3-((((3aR,7aR)-3a,4,5,6,7,7a-hexahydro-1H-benzo[d]imidazol-2-yl)thio)methyl)-5,6-dihydroimidazo[2,1-b]thiazole dihydrochloride], for which the IC50 is at most 10 µM.
The value for `c1ccc(CC2CN=C(SCCc3cccnc3)N2)cc1` (stereo not shown) [Example 65, 3-(2-((5-benzyl-4,5-dihydro-1H-imidazol-2-yl)thio)ethyl)pyridine dihydrochloride] was at least 31 µM; that for `CC1(C)CN2C(=N1)SC(I)=C2CSC1=NCC(C)(C)N1` [Example 66, 3-(((5,5-dimethyl-4,5-dihydro-1H-imidazol-2-yl)thio)methyl)-2-iodo-6,6-dimethyl-5,6-dihydroimidazo[2,1-b]thiazole dihydrochloride] was at most 10 µM; that for `c1ccc(CC2CN=C(SCCCc3ccc4c(n3)NCCC4)N2)cc1` (stereo not shown) [Example 68, 7-(3-((5-benzyl-4,5-dihydro-1H-imidazol-2-yl)thio)propyl)-1,2,3,4-tetrahydro-1,8-naphthyridine dihydrochloride] was 10 to 31 µM.
